In patent US20230131966A1, “FUNGICIDAL AMIDES” (FMC Corporation, priority 2020, published 2023):

Legend:
Assay type in all cases: in vivo
[1] = system: Erysiphe graminis f. sp. tritici; test: Test G: wheat powdery mildew control on wheat seedlings; settings: for Test G disease control rating / pest or weed control at 250 ppm: 250 ppm, 100 = 100% disease control, 0 = no control; for pest or weed control at 250 ppm: Blumeria graminis, read-out: Test G disease control rating
Botrytis cinerea = test: Test E: tomato Botrytis control on tomato seedlings; settings: for Test E disease control rating / pest or weed control at 250 ppm: 250 ppm, 100 = 100% disease control, 0 = no control; for pest or weed control at 250 ppm: Botrytis cinerea, read-out: Test E disease control rating
Phakopsora pachyrhizi = test: Test A: Asian soybean rust control on soybean seedlings; settings: for Test A disease control rating / pest or weed control at 250 ppm: 250 ppm, soybean seedlings, 100 = 100% disease control, 0 = no control; for pest or weed control at 250 ppm: Phakopsora pachyrhizi, read-out: Test A disease control rating
[2] = system: Puccinia recondita f. sp. tritici; test: Test B: wheat leaf rust control on wheat seedlings; settings: for Test B disease control rating / pest or weed control at 250 ppm: 250 ppm, wheat seedlings, 100 = 100% disease control, 0 = no control; for pest or weed control at 250 ppm: Puccinia recondita, read-out: Test B disease control rating
Phytophthora infestans = test: whole plant or invertebrate; settings: tomato seedlings; for Test F disease control rating: 250 ppm; for Test F disease control rating / pest or weed control at 250 ppm: 100 = 100% disease control, 0 = no control; for pest or weed control at 250 ppm: Phytophthora infestans, in Solanum lycopersicum, read-out: Test F disease control rating, 250 ppm
Zymoseptoria tritici = test: Test C: wheat leaf blotch control on wheat seedlings; settings: for Test C disease control rating / pest or weed control at 250 ppm: 250 ppm, wheat seedlings, 100 = 100% disease control, 0 = no control; for pest or weed control at 250 ppm: Zymoseptoria tritici, read-out: Test C disease control rating
Plasmopara viticola = test: Test D: grape downy mildew control on grape seedlings; settings: for Test D disease control rating / pest or weed control at 250 ppm: 250 ppm, 100 = 100% disease control, 0 = no control; for pest or weed control at 250 ppm: Plasmopara viticola, read-out: Test D disease control rating
[3] = rate 250 ppm, relative to the controls

## CCC(OC(=O)[C@H](C)NC(=O)c1nccc(OC)c1OCOC(=O)C(C)C)C1CCCCC1 (single isomer, unassigned) [Compound 170]
[1]
  Test G disease control rating: 0%
Botrytis cinerea
  Test E disease control rating: 0%
Phakopsora pachyrhizi
  Test A disease control rating: 100%
[2]
  Test B disease control rating: 100%
Phytophthora infestans
  Test F disease control rating: 0%
Zymoseptoria tritici
  Test C disease control rating: 100%
Plasmopara viticola
  Test D disease control rating: 32%

## COc1ccnc(C(=O)NC(C)C(=O)OC(C)C2CCC(C)(C)CC2)c1OC(C)=O (mixture of isomers) [Compound 165]
[1]
  Test G disease control rating: 0%
Botrytis cinerea
  Test E disease control rating: 0%
Phakopsora pachyrhizi
  Test A disease control rating: 100%
[2]
  Test B disease control rating: 100%
Phytophthora infestans
  Test F disease control rating: 0%
Zymoseptoria tritici
  Test C disease control rating: 97%
Plasmopara viticola
  Test D disease control rating: 10%

## COc1ccnc(C(=O)N[C@@H](C)C(=O)OC(c2ccc(C3CCCCC3)cc2)C(F)(F)F)c1O (some centres unmarked) [Compound 120]
[1]
  Test G disease control rating: 0%
Botrytis cinerea
  Test E disease control rating: 0%
Phakopsora pachyrhizi
  Test A disease control rating: 99%
[2]
  Test B disease control rating: 94%
Phytophthora infestans
  Test F disease control rating: 0%
Zymoseptoria tritici
  Test C disease control rating: 95%
Plasmopara viticola
  Test D disease control rating: 24%

## CCC(OC(=O)[C@H](C)NC(=O)c1nccc(OC)c1O)C1CCCCC1 (mixture of isomers) [Compound 84, N-[(3-hydroxy-4-methoxy-2-pyridinyl)carbonyl]-L-alanine 1-cyclohexylpropyl ester]
[1]
  pest or weed control at 250 ppm: 0%
Botrytis cinerea
  pest or weed control at 250 ppm: 0%
Phakopsora pachyrhizi
  pest or weed control at 250 ppm: 100%
[2]
  pest or weed control at 250 ppm: 100%
Phytophthora infestans
  pest or weed control at 250 ppm: 0%
Zymoseptoria tritici
  pest or weed control at 250 ppm: 57%
Plasmopara viticola
  pest or weed control at 250 ppm: 21%

## COc1ccnc(C(=O)N[C@@H](C)C(=O)OC(C)c2ccc(C3CC3)cc2)c1O (mixture of isomers) [Compound 66, N-[(3-hydroxy-4-methoxy-2-pyridinyl)carbonyl]-L-alanine 1-(4-cyclopropylphenyl)ethyl ester]
[1]
  pest or weed control at 250 ppm: 21%
Botrytis cinerea
  pest or weed control at 250 ppm: 0%
Phakopsora pachyrhizi
  pest or weed control at 250 ppm: 100%
[2]
  pest or weed control at 250 ppm: 100%
Phytophthora infestans
  pest or weed control at 250 ppm: 0%
Zymoseptoria tritici
  pest or weed control at 250 ppm: 73%
Plasmopara viticola
  pest or weed control at 250 ppm: 93%

## COc1ccnc(C(=O)NC(C)C(=O)OC(C)c2ccccc2Oc2ccc(F)cc2)c1OC(C)=O (mixture of isomers) [Compound 61]
[1]
  Test G disease control rating: 0%
Botrytis cinerea
  Test E disease control rating: 0%
Phakopsora pachyrhizi
  Test A disease control rating: 0%
[2]
  Test B disease control rating: 55%
Phytophthora infestans
  Test F disease control rating: 0%
Zymoseptoria tritici
  Test C disease control rating: 0%
Plasmopara viticola
  Test D disease control rating: 15%

## COc1ccnc(C(=O)N[C@@H](C)C(=O)OC(C)c2ccc(F)cc2Cc2ccccc2)c1O (single isomer, unassigned) [Compound 23]
[1]
  Test G disease control rating: 0%
Botrytis cinerea
  Test E disease control rating: 0%
Phakopsora pachyrhizi
  Test A disease control rating: 100%
[2]
  Test B disease control rating: 97%
Phytophthora infestans
  Test F disease control rating: 0%
Zymoseptoria tritici
  Test C disease control rating: 95%
Plasmopara viticola
  Test D disease control rating: 44%

## COc1cccc(C(=O)NC(C)C(=O)OC(C)c2ccccc2Cc2ccccc2)c1O (centres unmarked) [Compound 6]
[1]
  pest or weed control at 250 ppm: 0%
Botrytis cinerea
  pest or weed control at 250 ppm: 0%
Phakopsora pachyrhizi
  pest or weed control at 250 ppm: 0%
[2]
  pest or weed control at 250 ppm: 0%
Phytophthora infestans
  Test F disease control rating: 0%
Zymoseptoria tritici
  pest or weed control at 250 ppm: 0%
Plasmopara viticola
  Test D disease control rating: 28%

## COc1ccnc(C(=O)NC(C)C(=O)OC(C)c2ccc(C#C[Si](C)(C)C)cc2)c1OC(C)=O (mixture of isomers) [Compound 80]
[1]
  Test G disease control rating: 0%
Botrytis cinerea
  Test E disease control rating: 0%
Phakopsora pachyrhizi
  Test A disease control rating: 100%
[2]
  Test B disease control rating: 100%
Phytophthora infestans
  Test F disease control rating: 0%
Zymoseptoria tritici
  Test C disease control rating: 98%
Plasmopara viticola
  Test D disease control rating: 28%

## COc1ccnc(C(=O)NC(C)C(=O)OC(C)c2cccc3ccccc23)c1O (centres unmarked) [Compound 114]
[1]
  Test G disease control rating: 0%
Botrytis cinerea
  Test E disease control rating: 0%
Phakopsora pachyrhizi
  Test A disease control rating: 100%
[2]
  Test B disease control rating: 100%
Phytophthora infestans
  Test F disease control rating: 0%
Zymoseptoria tritici
  Test C disease control rating: 77%
Plasmopara viticola
  Test D disease control rating: 63%

## COc1ccnc(C(=O)NC(C)C(=O)N(C)C(C)c2ccc(C3CCCCC3)cc2)c1OC(C)=O (mixture of isomers) [Compound 99]
[1]
  Test G disease control rating: 0%
Botrytis cinerea
  Test E disease control rating: 0%
Phakopsora pachyrhizi
  Test A disease control rating: 98%
[2]
  Test B disease control rating: 68%
Phytophthora infestans
  Test F disease control rating: 0%
Zymoseptoria tritici
  Test C disease control rating: 88%
Plasmopara viticola
  Test D disease control rating: 39%

## COc1cccc(C(=O)NC(C)C(=O)OC(C)C2CCCCC2)c1OC(C)=O (mixture of isomers) [Compound 92]
[1]
  Test G disease control rating: 0%
Botrytis cinerea
  Test E disease control rating: 0%
Phakopsora pachyrhizi
  Test A disease control rating: 0%
[2]
  Test B disease control rating: 0%
Phytophthora infestans
  Test F disease control rating: 0%
Zymoseptoria tritici
  Test C disease control rating: 0%
Plasmopara viticola
  Test D disease control rating: 60%

## COc1ccnc(C(=O)NC(C)C(=O)OC(C)c2cc3ccccc3o2)c1O (mixture of isomers) [Compound 125]
[1]
  Test G disease control rating: 0%
Botrytis cinerea
  Test E disease control rating: 0%
Phakopsora pachyrhizi
  Test A disease control rating: 99%
[2]
  Test B disease control rating: 90%
Phytophthora infestans
  Test F disease control rating: 0%
Zymoseptoria tritici
  Test C disease control rating: 90%
Plasmopara viticola
  Test D disease control rating: 67%

## COc1ccnc(C(=O)NC(C)C(=O)OC(C)C2Cc3ccccc3O2)c1O (mixture of isomers) [Compound 187]
[1]; [3]
  Test G disease control rating (100 = 100% disease control, 0 = no disease control): 0%
Botrytis cinerea; [3]
  Test E disease control rating (100 = 100% disease control, 0 = no disease control): 0%
Phakopsora pachyrhizi; [3]
  Test A disease control rating (100 = 100% disease control, 0 = no disease control): 97%
[2]; [3]
  Test B disease control rating (100 = 100% disease control, 0 = no disease control): 100%
Phytophthora infestans; [3]
  Test F disease control rating (100 = 100% disease control, 0 = no disease control): 0%
Zymoseptoria tritici; [3]
  Test C disease control rating (100 = 100% disease control, 0 = no disease control): 96%
Plasmopara viticola; [3]
  Test D disease control rating (100 = 100% disease control, 0 = no disease control): 6%

## COc1ccnc(C(=O)NC(C)C(=O)OC(C)c2ccc3ccccc3c2)c1OC(C)=O (mixture of isomers) [Compound 75]
[1]
  Test G disease control rating: 0%
Botrytis cinerea
  Test E disease control rating: 0%
Phakopsora pachyrhizi
  Test A disease control rating: 100%
[2]
  Test B disease control rating: 100%
Phytophthora infestans
  Test F disease control rating: 0%
Zymoseptoria tritici
  Test C disease control rating: 100%
Plasmopara viticola
  Test D disease control rating: 61%

## COc1ccnc(C(=O)N[C@@H](C)C(=O)OC(C)c2ccc(C(C)(C)C)cc2)c1O (some centres unmarked) [Compound 123]
[1]
  Test G disease control rating: 0%
Botrytis cinerea
  Test E disease control rating: 0%
Phakopsora pachyrhizi
  Test A disease control rating: 100%
[2]
  Test B disease control rating: 100%
Phytophthora infestans
  Test F disease control rating: 24%
Zymoseptoria tritici
  Test C disease control rating: 84%
Plasmopara viticola
  Test D disease control rating: 57%

## COc1ccnc(C(=O)N[C@@H](C)C(=O)OC(C)c2ccccc2Cc2ccc(F)cc2)c1O (single isomer, unassigned) [Compound 39]
[1]
  Test G disease control rating: 0%
Botrytis cinerea
  Test E disease control rating: 57%
Phakopsora pachyrhizi
  Test A disease control rating: 100%
[2]
  Test B disease control rating: 100%
Phytophthora infestans
  Test F disease control rating: 0%
Zymoseptoria tritici
  Test C disease control rating: 87%
Plasmopara viticola
  Test D disease control rating: 16%

## COc1ccnc(C(=O)N[C@@H](C)C(=O)OC(C)C2CCC(c3ccccc3)CC2)c1OC(C)=O (mixture of isomers) [Compound 104, N-[[3-(acetyloxy)-4-methoxy-2-pyridinyl]carbonyl]-L-alanine 1-(4-phenylcyclohexyl)ethyl ester]
[1]
  pest or weed control at 250 ppm: 0%
Botrytis cinerea
  pest or weed control at 250 ppm: 0%
Phakopsora pachyrhizi
  pest or weed control at 250 ppm: 100%
[2]
  pest or weed control at 250 ppm: 100%
Phytophthora infestans
  pest or weed control at 250 ppm: 0%
Zymoseptoria tritici
  pest or weed control at 250 ppm: 93%
Plasmopara viticola
  pest or weed control at 250 ppm: 65%

## COc1ccnc(C(=O)N[C@@H](C)C(=O)OC(C)c2ccc(C3CCCCC3)cc2)c1OC(=O)c1ccccc1 (some centres unmarked) [Compound 136]
[1]
  Test G disease control rating: 0%
Botrytis cinerea
  Test E disease control rating: 0%
Phakopsora pachyrhizi
  Test A disease control rating: 60%
[2]
  Test B disease control rating: 90%
Phytophthora infestans
  Test F disease control rating: 0%
Zymoseptoria tritici
  Test C disease control rating: 0%
Plasmopara viticola
  Test D disease control rating: 4%

## COc1ccnc(C(=O)NC(C)C(=O)OC(C)c2cccc(-n3ccc(C(F)(F)F)n3)c2)c1OC(C)=O (mixture of isomers) [Compound 27]
[1]
  Test G disease control rating: 0%
Botrytis cinerea
  Test E disease control rating: 0%
Phakopsora pachyrhizi
  Test A disease control rating: 98%
[2]
  Test B disease control rating: 99%
Phytophthora infestans
  Test F disease control rating: 0%
Zymoseptoria tritici
  Test C disease control rating: 81%
Plasmopara viticola
  Test D disease control rating: 38%

## COc1ccnc(C(=O)N[C@@H](C)C(=O)O[C@@H](C)C2CCCCC2)c1OC(C)=O [Compound 87, N-[[3-(acetyloxy)-4-methoxy-2-pyridinyl]carbonyl]-L-alanine (1S)-1-cyclohexylethyl ester]
[1]
  pest or weed control at 250 ppm: 0%
Botrytis cinerea
  pest or weed control at 250 ppm: 0%
Phakopsora pachyrhizi
  pest or weed control at 250 ppm: 100%
Phytophthora infestans
  pest or weed control at 250 ppm: 47%
Zymoseptoria tritici
  pest or weed control at 250 ppm: 95%
Plasmopara viticola
  pest or weed control at 250 ppm: 21%
